Test results published in patent US20250320227A1, “MACROCYCLIC OREXIN RECEPTOR AGONISTS AND USES THEREOF” (Jazz Pharmaceuticals Ireland Limited, priority 2022, published 2025).
Like-named read-outs stand apart in the source and are kept apart here. Each block holds one molecule with its values, some of them ahead of it.

Legend:
[1] = molecular target: T1, human recombinant OX2 (hOX2) receptors expressed in CHO cells (Homo sapiens, UniProt O43614); assay: IP-1 accumulation assay (IP-One HTRF) in hOX2-CHO cells; format: cell-based; settings: 60 min incubation at 37° C., mean of at least two independent experiments, read-out: EC50_OX2R Category
T1 construct: host or cells: CHO cells (hOX2-CHO)
T1 sequence (O43614 1-444): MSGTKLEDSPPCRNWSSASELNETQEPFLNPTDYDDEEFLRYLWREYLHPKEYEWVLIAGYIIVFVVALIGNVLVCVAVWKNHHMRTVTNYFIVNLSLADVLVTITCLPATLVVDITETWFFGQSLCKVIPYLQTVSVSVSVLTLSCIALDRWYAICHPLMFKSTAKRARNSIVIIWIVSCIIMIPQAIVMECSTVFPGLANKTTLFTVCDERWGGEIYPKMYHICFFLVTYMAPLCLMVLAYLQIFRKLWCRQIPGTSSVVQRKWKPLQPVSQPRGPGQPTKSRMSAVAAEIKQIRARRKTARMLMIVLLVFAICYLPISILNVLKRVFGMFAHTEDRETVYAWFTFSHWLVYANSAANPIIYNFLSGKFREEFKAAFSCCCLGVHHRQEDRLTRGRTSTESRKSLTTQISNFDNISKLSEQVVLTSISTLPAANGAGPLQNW
Outline: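 CHO cells in suspension in HBSS/20 mM HEPES pH 7.4 with 50 mM LiCl and 0.1% BSA, given compound (11-point series, 0.5% DMSO) for 60 min at 37 °C. IP-1 read by HTRF ratio, scaled to maximal OX-A response; EC50 from four-parameter fit, mean of ≥2 experiments.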

EC50 [1]: 1000 to 10000 nM
Compound: C[C@@H]1CC2(COCC(=O)N2)C2Cc3cccc(c3F)-c3ccccc3OCCC(=O)N21 (mixture of isomers) [Example 26, (13′R)-22′-fluoro-13′-methyl-8′-oxa-12′-azaspiro[morpholine-3,15′-tetracyclo[16.3.1.0^2,70.0^12,16]docosane]-1′(22′),2′(7′),3′,5′,18′,20′-hexaene-5,11′-dione]
ring closure, yield of all isomers (from C[C@@H]1CC2(COCC(=O)N2)C(Cc2cccc(-c3ccccc3OCCC(=O)O)c2F)N1, amide bond, HATU, DIPEA, acetonitrile, 0.84 mM, 25.0 °C, 2.5 h): 2.4%

EC50 [1]: 100 to 1000 nM
Compound: C[C@@H]1CC2(COCC(=O)N2)C2Cc3cccc(c3F)-c3ccccc3OCCCC(=O)N21 (mixture of isomers) [Example 27, (14′R)-23′-fluoro-14′-methyl-8′-oxa-13′-azaspiro[morpholine-3,16′-tetracyclo[17.3.1.0^2,70.0^13,17]tricosane]-1′(23′),2′(7′),3′,5′,19′,21′-hexaene-5, 12′-dione]
ring closure, yield of all isomers (from C[C@@H]1CC2(COCC(=O)N2)C(Cc2cccc(-c3ccccc3OCCCC(=O)O)c2F)N1, amide bond, HATU, MeCN, 2.3 mM, 25.0 °C, 2.5 h): 84.9%

Compound: CC1CC(=O)N2CC[C@@]3(COCC(=O)N3)[C@@H]2CO[C@H]2CC[C@H](CC2)c2ccccc2O1 (relative stereo)
ring closure, yield of all isomers (from CC(CC(=O)O)Oc1ccccc1[C@H]1CC[C@@H](OC[C@@H]2NCC[C@@]23COCC(=O)N3)CC1, amide bond, HATU/DIPEA, acetonitrile, 3.7 mM, 3.0 h): 45.6%

Compound: O=C1COC[C@@]2(CCCN3C(=O)OCCOc4cccc(c4)[C@H]4CC[C@H](CC4)OC[C@H]32)N1 (relative stereo)
ring closure, yield of all isomers (from O=C1COC[C@@]2(CCCN(C(=O)OCCCl)[C@H]2CO[C@H]2CC[C@@H](c3cccc(O)c3)CC2)N1, ether bond, Cs2CO3, DMF, 4.02 mM, 60.0 °C, 15.0 h): 11.1%

Compound: O=C1COC[C@@]2(CCCN3C(=O)OCCOc4ccccc4-c4cccc(c4F)C[C@H]32)N1 (relative stereo)
ring closure, yield of all isomers (from O=C1COC[C@@]2(CCCN[C@H]2Cc2cccc(-c3ccccc3OCCO)c2F)N1, other bond, triphosgene, MeCN, 15.7 mM, 80.0 °C, 20.5 h): 3.6%

Compound: O=C1COC[C@@]2(CCN3C(=O)CC(C(F)(F)F)Oc4ccccc4[C@H]4CC[C@H](CC4)OC[C@H]32)N1 (relative stereo)
ring closure, yield of all isomers (from O=C(O)CC(Oc1ccccc1[C@H]1CC[C@@H](OC[C@@H]2NCC[C@@]23COCC(=O)N3)CC1)C(F)(F)F, amide bond, HATU/DIPEA, acetonitrile, 3.68 mM, 3.0 h): 54.7%

Compound: O=C1COC[C@@]2(CCN3C(=O)CCCOc4ccccc4[C@H]4CC[C@H](CC4)OC[C@H]32)N1 (relative stereo)
ring closure, yield of all isomers (from O=C(O)CCCOc1ccccc1[C@H]1CC[C@@H](OC[C@@H]2NCC[C@@]23COCC(=O)N3)CC1, amide bond, HATU/DIPEA, acetonitrile, 2.01 mM, 3.0 h): 54.4%

Compound: O=C1COC[C@@]2(CCN3C(=O)CCOc4c(F)cc(F)cc4C4=CCC(CC4)OC[C@H]32)N1 (relative stereo)
ring closure, yield of all isomers (from O=C(O)CCOc1c(F)cc(F)cc1C1=CCC(OC[C@@H]2NCC[C@@]23COCC(=O)N3)CC1, amide bond, HATU/DIPEA, acetonitrile, 3.43 mM, 3.0 h): 60.1%

Compound: O=C1COC[C@@]2(CCN3C(=O)CCOc4cccc(F)c4[C@H]4CC[C@H](CC4)OC[C@H]32)N1 (relative stereo)
ring closure, yield of all isomers (from O=C(O)CCOc1cccc(F)c1[C@H]1CC[C@@H](OC[C@@H]2NCC[C@@]23COCC(=O)N3)CC1, amide bond, HATU/DIPEA, acetonitrile, 5.42 mM, 25.0 °C, 4.0 h): 46.4%

Compound: O=C1COC[C@@]2(CCN3C(=O)CCOc4ccccc4[C@H]4CC[C@H](CC4)OC[C@H]32)N1 (relative stereo)
ring closure, yield of all isomers (from O=C(O)CCOc1ccccc1[C@H]1CC[C@@H](OC[C@@H]2NCC[C@@]23COCC(=O)N3)CC1, amide bond, HATU/DIPEA, acetonitrile, 1.97 mM, 3.0 h): 92.6%

Compound: O=C1N[C@]2(CCN3C(=O)CCOc4ccccc4[C@H]4CC[C@H](CC4)OC[C@H]32)COC1F (relative stereo)
ring closure, yield of all isomers (from O=C(O)CCOc1ccccc1[C@H]1CC[C@@H](OC[C@@H]2NCC[C@@]23COC(F)C(=O)N3)CC1, amide bond, HATU/DIPEA, acetonitrile, 3.66 mM, 3.0 h): 46.1%

EC50 [1]: 100 to 1000 nM
Compound: CC1COc2ccccc2[C@H]2CC[C@H](CC2)OC[C@@H]2N(CC[C@@]23COCC(=O)N3)C1=O (relative stereo) [Example 5c, (1′s,3R,10′R,16′S,19′s)-10′-methyl-8′,18′-dioxa-12′-azaspiro[morpholine-3,15′-tetracyclo[17.2.2.0^2,70.0^12,16]tricosane]-2′(7′),3′,5′-triene-5,11′-dione and (1′s,3S, 10′S,16′R,19′s)-10′-methyl-8′,18′-dioxa-12′-azaspiro[morpholine-3,15′-tetracyclo[17.2.2.0^2,70.0^12,16]tricosane]-2′(7′), 3′,5′-triene-5,11′-dione]
ring closure, yield of all isomers (from CC(COc1ccccc1[C@H]1CC[C@@H](OC[C@@H]2NCC[C@@]23COCC(=O)N3)CC1)C(=O)O, amide bond, HATU/DIPEA, acetonitrile, 3.68 mM, 3.0 h): 9.4%

EC50 [1]: < 100 nM
Compound: C[C@@H]1C[C@@]2(COCC(=O)N2)[C@@H]2CO[C@H]3CC[C@H](CC3)c3c(F)cccc3OCC(=O)N12 (single isomer, unassigned) [Example 17a]
ring closure, yield of all isomers (from C[C@@H]1CC2(COCC(=O)N2)C(CO[C@H]2CC[C@@H](c3c(F)cccc3OCC(=O)O)CC2)N1, amide bond, HATU, DIPEA, acetonitrile, 19.2 mM, 3.0 h): 9%

EC50 [1]: < 100 nM
Compound: C[C@@H]1C[C@@]2(COCC(=O)N2)[C@@H]2CO[C@H]3CC[C@H](CC3)c3cccc(F)c3OCCC(=O)N12 (single isomer, unassigned) [Example 24a]
ring closure, yield of all isomers (from C[C@@H]1CC2(COCC(=O)N2)C(CO[C@H]2CC[C@@H](c3cccc(F)c3OCCC(=O)O)CC2)N1, amide bond, HATU, DIPEA, acetonitrile, 12.2 mM, 3.0 h): 37.1%

EC50 [1]: < 100 nM
Compound: Cc1ccnc2c1[C@H]1CC[C@H](CC1)OCC1N(CCCC13COCC(=O)N3)C(=O)CO2 (stereo partly drawn) [Example 77, (1′s,19′s)-3′-methyl-8′,18′-dioxa-6′,11′-diazaspiro[morpholine-3,15′-tetracyclo[17.2.2.0^2,70.0^11,16]tricosane]-2′,4′,6′-triene-5,10′-dione]
ring closure, yield of all isomers (from Cc1ccnc(O)c1[C@H]1CC[C@@H](OCC2N(C(=O)CCl)CCCC23COCC(=O)N3)CC1, ether bond, K2CO3, acetonitrile, 2.06 mM, 90.0 °C, 12.0 h): 9.4%
